Data reported in patent publication US8440686B2, “Nalmefene prodrugs” (Janssen Pharmaceutica NV, priority 2008, dated 2013).

Assay: In vivo PK studies in dog (oral administration): plasma levels of nalmefene
Conditions: oral administration of nalmefene itself
Procedure: C.2. In vivo PK Studies in Dog (Oral Administration): Plasma Levels of Nalmefene
Doses at 10 mg/kg or 20 mg/kg body weight of a compound of formula (I) or of nalmefene itself in a solution of 20% HP-β-CD (hydroxypropyl-β-cyclodextrines) were used and orally administered to dogs.
Blood samples were taken over a period of 192 hours after oral administration. Blood samples were processed to obtain plasma. Plasma samples were analysed individually for nalmefene by means of a qualified LC-MS/MS-method.

C=C1CC[C@@]2(O)[C@H]3Cc4ccc(O)c5c4[C@@]2(CCN3CC2CC2)[C@H]1O5 [nalmefene, 17-cyclopropylmethyl-4,5α-epoxy-6-methylenemorphinan-3,14-diol]
time for which plasma levels of nalmefene can be measured after oral administration: a few hours
